Test results as given in US20210338846A1, “COMPETITIVE PROSTATE-SPECIFIC MEMBRANE ANTIGEN (PSMA) BINDING AGENTS FOR REDUCTION OF NON-TARGET ORGAN UPTAKE OF RADIOLABELED PSMA INHIBITORS FOR PSMA POSITIVE TUMOR IMAGING AND RADIOPHARMACEUTICAL THERAPY” (The Johns Hopkins University, priority 2018, published 2021).
pKi: −log10 of the molar value. Like-named read-outs stand apart in the source and are kept apart here.

Legend:
PSMA = PSMA (Homo sapiens, UniProt Q04609); details: read-out: Ki (PSMA inhibition); cited from earlier work
PSMA+PiP tumors = details: cited from earlier work; for renal uptake (in words) / uptake in PSMA+ PiP tumors (in words): radiolabeled version
[1] = tested on: PSMA+ PC-3 PiP and PSMA− PC-3 flu tumors; assay: Biodistribution of [177Lu]VK-03-27 without and with co-injection of competing inhibitor VK-03-27; format: in vivo, mice; details: for Biodistribution: Blood / Biodistribution: Flu tumor / Biodistribution: Lacrimal Glands / Biodistribution: PiP tumor / Biodistribution: Salivary gland / Biodistribution: kidneys / Biodistribution: spleen / Biodistribution: stomach: 2 Hour
[2] = tested on: PSMA+ PC-3 PiP and PSMA− PC-3 flu tumors; details: for Biodistribution: Blood / Biodistribution: Flu tumor / Biodistribution: Lacrimal gland / Biodistribution: PiP tumor / Biodistribution: Salivary gland / Biodistribution: kidneys / Biodistribution: spleen / Biodistribution: stomach: without competitive inhibitor
[3] = tested on: PSMA+ PC-3 PiP and PSMA− PC-3 flu tumors; assay: Biodistribution of [177Lu]VK-I-45 without and with co-injection of competing inhibitor [Lu]VK-I-45; format: in vivo, mice; details: 2 Hour
Text: VK-01-45 and its Lu-177 complex was reported in international PCT patent application publication no. WO 2017/165473 A, to Ray et al., which is incorporated herein by reference in its entirety. […] This approach can be applied to all compounds in WO 2017/165473 A1, to Ray et al.

[4] = mouse treated with 1.5 MBq; from Kiess et al., 2016; cited from earlier work
[5] = co-injection 0.1 nmole [Lu]VK-I-45
[6] = co-injection 0.5 nmole [Lu]VK-I-45
[7] = co-injection 1.0 nmole [Lu]VK-I-45
[8] = co-injection 5.0 nmole [Lu]VK-I-45

PSMA, sequence (Q04609 whole entry): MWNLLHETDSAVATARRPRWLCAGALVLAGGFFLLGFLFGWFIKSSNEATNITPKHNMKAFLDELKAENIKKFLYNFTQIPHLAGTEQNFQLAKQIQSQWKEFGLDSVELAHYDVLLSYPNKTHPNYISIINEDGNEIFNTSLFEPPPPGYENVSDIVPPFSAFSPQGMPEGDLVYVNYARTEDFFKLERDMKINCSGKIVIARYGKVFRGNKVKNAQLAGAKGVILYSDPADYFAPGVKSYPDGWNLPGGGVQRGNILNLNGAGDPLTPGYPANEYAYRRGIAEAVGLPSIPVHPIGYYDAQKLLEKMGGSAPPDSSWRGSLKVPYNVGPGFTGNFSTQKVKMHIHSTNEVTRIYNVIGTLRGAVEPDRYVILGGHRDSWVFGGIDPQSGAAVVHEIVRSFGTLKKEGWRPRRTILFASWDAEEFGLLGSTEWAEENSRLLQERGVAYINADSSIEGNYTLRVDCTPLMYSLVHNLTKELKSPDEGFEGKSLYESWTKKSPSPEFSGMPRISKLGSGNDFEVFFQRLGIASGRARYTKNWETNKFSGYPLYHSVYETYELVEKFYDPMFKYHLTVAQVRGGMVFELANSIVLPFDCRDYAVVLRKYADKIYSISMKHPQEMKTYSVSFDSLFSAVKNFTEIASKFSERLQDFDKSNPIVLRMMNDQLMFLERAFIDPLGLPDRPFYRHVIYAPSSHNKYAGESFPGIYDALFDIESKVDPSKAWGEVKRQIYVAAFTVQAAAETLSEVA

Structure (SMILES): O=C(O)CCC(OC(=O)NC(CCCCNC(=O)c1ccc(I)cc1F)C(=O)O)C(=O)O (stereo not drawn) [Compound 24]
- pKi (PSMA): 9.70
- renal uptake (in words) (PSMA+PiP tumors): high initial renal uptake that decreases over time
- uptake in PSMA+ PiP tumors (in words) (PSMA+PiP tumors): high uptake

Structure (SMILES): O=C(O)CCC(OC(=O)NC(CCCCNC(=O)c1ccc(Br)cc1F)C(=O)O)C(=O)O (stereo not drawn) [Compound 25]
- pKi (PSMA): 10.00
- renal uptake (in words) (PSMA+PiP tumors): high initial renal uptake that decreases over time
- uptake in PSMA+ PiP tumors (in words) (PSMA+PiP tumors): high uptake

Structure (SMILES): O=C(O)CC[C@H](NC(=O)N[C@@H](CCC(=O)NCCc1ccc(I)cc1)C(=O)O)C(=O)O [HS-549]
- renal uptake (in words) (PSMA+PiP tumors): high initial kidney uptake
- uptake in PSMA+ PiP tumors (in words) (PSMA+PiP tumors): high PSMA+Pip tumor uptake

Structure (SMILES): O=C(O)CC[C@H](NC(=O)N[C@@H](CCCCN(Cc1ccc(Br)cc1)C(=O)CCCCNC(=O)CCC(C(=O)O)N1CCN(CC(=O)O)CCN(CC(=O)O)CCN(CC(=O)O)CC1)C(=O)O)C(=O)O (stereo partly drawn) [VK-03-27]
- effect of competing inhibitor on uptake of [177Lu]VK-03-27 ([1]; VK-03-27 (no Lu complex) as the CI): reduces the uptake in kidneys, salivary glands and Lacrimal glands

Structure (SMILES): O=C(O)CC[C@H](NC(=O)N[C@@H](CCCCNC(=O)c1ccc(I)cc1)C(=O)O)C(=O)O [YC-I-27]
- uptake and retention in kidneys (PSMA+PiP tumors; radiolabeled form, out to two days post-injection): > 100 % ID/g
- uptake in PSMA+ PiP tumors (in words) (PSMA+PiP tumors): high and prolonged uptake

Structure (SMILES): O=C([O-])CN1CCN(CC(=O)[O-])CCN(C(CCC(=O)NCCCCC(=O)N(CCCC[C@H](NC(=O)N[C@@H](CCC(=O)O)C(=O)O)C(=O)O)Cc2ccc(Br)cc2)C(=O)O)CCN(CC(=O)[O-])CC1.[177Lu+3] (stereo partly drawn) [[^177Lu]VK-03-27]
- Biodistribution: Blood ([1]; No CI): 0.43 ± 0.6 % injected dose/gram
- Biodistribution: Flu tumor ([1]; No CI): 0.4 ± 0.02 % injected dose/gram
- Biodistribution: Lacrimal Glands ([1]; No CI): 1.06 ± 0.37 % injected dose/gram
- Biodistribution: PiP tumor ([1]; No CI): 55 ± 12 % injected dose/gram
- Biodistribution: Salivary gland ([1]; No CI): 1.2 ± 0.25 % injected dose/gram
- Biodistribution: kidneys ([1]; No CI): 140 ± 21 % injected dose/gram
- Biodistribution: spleen ([1]; No CI): 8.0 ± 2.8 % injected dose/gram
- Biodistribution: stomach ([1]; No CI): 0.44 ± 0.6 % injected dose/gram
- Biodistribution: Blood ([1]; co-injection 2 nmole VK-03-27): 0.23 ± 0.5 % injected dose/gram
- Biodistribution: Flu tumor ([1]; co-injection 2 nmole VK-03-27): 0.32 ± 0.05 % injected dose/gram
- Biodistribution: Lacrimal Glands ([1]; co-injection 2 nmole VK-03-27): 0.29 ± 0.08 % injected dose/gram
- Biodistribution: PiP tumor ([1]; co-injection 2 nmole VK-03-27): 37 ± 8 % injected dose/gram
- Biodistribution: Salivary gland ([1]; co-injection 2 nmole VK-03-27): 0.24 ± 0.04 % injected dose/gram
- Biodistribution: kidneys ([1]; co-injection 2 nmole VK-03-27): 10.6 ± 0.6 % injected dose/gram
- Biodistribution: spleen ([1]; co-injection 2 nmole VK-03-27): 0.8 ± 0.17 % injected dose/gram
- Biodistribution: stomach ([1]; co-injection 2 nmole VK-03-27): 0.23 ± 0.09 % injected dose/gram
- Biodistribution: Blood ([1]; co-injection 20 nmole VK-03-27): 0.25 ± 0.14 % injected dose/gram
- Biodistribution: Flu tumor ([1]; co-injection 20 nmole VK-03-27): 0.27 ± 0.05 % injected dose/gram
- Biodistribution: Lacrimal Glands ([1]; co-injection 20 nmole VK-03-27): 0.26 ± 0.05 % injected dose/gram
- Biodistribution: PiP tumor ([1]; co-injection 20 nmole VK-03-27): 26 ± 4 % injected dose/gram
- Biodistribution: Salivary gland ([1]; co-injection 20 nmole VK-03-27): 0.16 ± 0.04 % injected dose/gram
- Biodistribution: kidneys ([1]; co-injection 20 nmole VK-03-27): 3.5 ± 0.56 % injected dose/gram
- Biodistribution: spleen ([1]; co-injection 20 nmole VK-03-27): 0.39 ± 0.18 % injected dose/gram
- Biodistribution: stomach ([1]; co-injection 20 nmole VK-03-27): 0.45 ± 0.35 % injected dose/gram
- Biodistribution: Blood ([1]; co-injection 40 nmole VK-03-27): 0.16 ± 0.03 % injected dose/gram
- Biodistribution: Flu tumor ([1]; co-injection 40 nmole VK-03-27): 0.25 ± 0.05 % injected dose/gram
- Biodistribution: Lacrimal Glands ([1]; co-injection 40 nmole VK-03-27): 0.26 ± 0.11 % injected dose/gram
- Biodistribution: PiP tumor ([1]; co-injection 40 nmole VK-03-27): 18 ± 3 % injected dose/gram
- Biodistribution: Salivary gland ([1]; co-injection 40 nmole VK-03-27): 0.25 ± 0.21 % injected dose/gram
- Biodistribution: kidneys ([1]; co-injection 40 nmole VK-03-27): 2.15 ± 0.1 % injected dose/gram
- Biodistribution: spleen ([1]; co-injection 40 nmole VK-03-27): 0.21 ± 0.1 % injected dose/gram
- Biodistribution: stomach ([1]; co-injection 40 nmole VK-03-27): 0.42 ± 0.21 % injected dose/gram
- Biodistribution: Blood ([2]; 2 Hour): 1.2 ± 1.7 % injected dose/gram
- Biodistribution: Flu tumor ([2]; 2 Hour): 5.8 ± 9.6 % injected dose/gram
- Biodistribution: Lacrimal gland ([2]; 2 Hour): 5.8 ± 9.6 % injected dose/gram
- Biodistribution: PiP tumor ([2]; 2 Hour): 50 ± 14 % injected dose/gram
- Biodistribution: Salivary gland ([2]; 2 Hour): 3.4 ± 4.4 % injected dose/gram
- Biodistribution: kidneys ([2]; 2 Hour): 150 ± 32 % injected dose/gram
- Biodistribution: spleen ([2]; 2 Hour): 7.4 ± 3.0 % injected dose/gram
- Biodistribution: stomach ([2]; 2 Hour): 0.66 ± 0.75 % injected dose/gram
- Biodistribution: Blood ([2]; 8 Hour): 0.06 ± 0.02 % injected dose/gram
- Biodistribution: Flu tumor ([2]; 8 Hour): 0.25 ± 0.05 % injected dose/gram
- Biodistribution: Lacrimal gland ([2]; 8 Hour): 0.25 ± 0.05 % injected dose/gram
- Biodistribution: PiP tumor ([2]; 8 Hour): 41 ± 9 % injected dose/gram
- Biodistribution: Salivary gland ([2]; 8 Hour): 0.34 ± 0.18 % injected dose/gram
- Biodistribution: kidneys ([2]; 8 Hour): 52 ± 18 % injected dose/gram
- Biodistribution: spleen ([2]; 8 Hour): 1.2 ± 0.6 % injected dose/gram
- Biodistribution: stomach ([2]; 8 Hour): 0.32 ± 0.31 % injected dose/gram
- Biodistribution: Blood ([2]; 24 Hour): 0.03 ± 0.01 % injected dose/gram
- Biodistribution: Flu tumor ([2]; 24 Hour): 0.12 ± 0.02 % injected dose/gram
- Biodistribution: Lacrimal gland ([2]; 24 Hour): 0.12 ± 0.02 % injected dose/gram
- Biodistribution: PiP tumor ([2]; 24 Hour): 49 ± 7 % injected dose/gram
- Biodistribution: Salivary gland ([2]; 24 Hour): 0.16 ± 0.06 % injected dose/gram
- Biodistribution: kidneys ([2]; 24 Hour): 5.9 ± 2.7 % injected dose/gram
- Biodistribution: spleen ([2]; 24 Hour): 0.28 ± 0.13 % injected dose/gram
- Biodistribution: stomach ([2]; 24 Hour): 0.14 ± 0.03 % injected dose/gram
- PSMA+ PiP tumor uptake (in words) ([2]; Table 7): high PSMA+PipTumor uptake
- renal uptake (in words) ([2]; Table 7): very high early renal uptake

Structure (SMILES): O=C([O-])CN1CCN(CC(=O)[O-])CCN(CC(=O)NCCCCC(=O)N(CCCC[C@H](NC(=O)N[C@@H](CCC(=O)O)C(=O)O)C(=O)O)Cc2ccc(Br)cc2)CCN(CC(=O)[O-])CC1.[177Lu+3] [[^177Lu]VK-I-45]
- Biodistribution: Blood ([3]; No CI): 0.1 ± 0.04 % injected dose/gram
- Biodistribution: Flu tumor ([3]; No CI): 0.3 ± 0.06 % injected dose/gram
- Biodistribution: PiP tumor ([3]; No CI): 39 ± 14 % injected dose/gram
- Biodistribution: Salivary gland ([3]; No CI): 0.16 ± 0.07 % injected dose/gram
- Biodistribution: kidneys ([3]; No CI): 35 ± 17 % injected dose/gram
- Biodistribution: spleen ([3]; No CI): 0.7 ± 0.2 % injected dose/gram
- Biodistribution: stomach ([3]; No CI): 0.1 ± 0.04 % injected dose/gram
- Biodistribution: Blood [3, 5]: 0.12 ± 0.02 % injected dose/gram
- Biodistribution: Flu tumor [3, 5]: 0.4 ± 0.07 % injected dose/gram
- Biodistribution: PiP tumor [3, 5]: 38 ± 4 % injected dose/gram
- Biodistribution: Salivary gland [3, 5]: 0.16 ± 0.03 % injected dose/gram
- Biodistribution: kidneys [3, 5]: 17 ± 11 % injected dose/gram
- Biodistribution: spleen [3, 5]: 0.65 ± 0.1 % injected dose/gram
- Biodistribution: stomach [3, 5]: 0.2 ± 0.08 % injected dose/gram
- Biodistribution: Blood [3, 6]: 0.11 ± 0.04 % injected dose/gram
- Biodistribution: Flu tumor [3, 6]: 0.35 ± 0.07 % injected dose/gram
- Biodistribution: PiP tumor [3, 6]: 35 ± 8 % injected dose/gram
- Biodistribution: Salivary gland [3, 6]: 0.12 ± 0.02 % injected dose/gram
- Biodistribution: kidneys [3, 6]: 4.8 ± 1.4 % injected dose/gram
- Biodistribution: spleen [3, 6]: 0.32 ± 0.07 % injected dose/gram
- Biodistribution: stomach [3, 6]: 0.09 ± 0.02 % injected dose/gram
- Biodistribution: Blood [3, 7]: 0.07 ± 0.02 % injected dose/gram
- Biodistribution: Flu tumor [3, 7]: 0.2 ± 0.03 % injected dose/gram
- Biodistribution: PiP tumor [3, 7]: 20 ± 1.5 % injected dose/gram
- Biodistribution: Salivary gland [3, 7]: 0.07 ± 0.01 % injected dose/gram
- Biodistribution: kidneys [3, 7]: 1.75 ± 0.32 % injected dose/gram
- Biodistribution: spleen [3, 7]: 0.15 ± 0.02 % injected dose/gram
- Biodistribution: stomach [3, 7]: 0.13 ± 0.08 % injected dose/gram
- Biodistribution: Blood [3, 8]: 0.8 ± 0.04 % injected dose/gram
- Biodistribution: Flu tumor [3, 8]: 0.36 ± 0.14 % injected dose/gram
- Biodistribution: PiP tumor [3, 8]: 17.3 ± 1.9 % injected dose/gram
- Biodistribution: Salivary gland [3, 8]: 0.11 ± 0.04 % injected dose/gram
- Biodistribution: kidneys [3, 8]: 1.35 ± 0.44 % injected dose/gram
- Biodistribution: spleen [3, 8]: 0.14 ± 0.06 % injected dose/gram
- Biodistribution: stomach [3, 8]: 0.2 ± 0.18 % injected dose/gram

Structure (SMILES): O=C(O)CC[C@H](NC(=O)NC(CCCCNC(=O)c1ccc([211At])cc1)C(=O)O)C(=O)O (stereo partly drawn) [[^211At]DCIBzL, (2S)-2-(3-(1-Carboxy-5-(4-[^211At]astatobenzamido)pentyl)ureido)-pentanedioic acid]
- renal histopathology [4]: severe renal damage
